Assay results from ChEMBL document CHEMBL1146099, “Anthranilic acid based CCK1 receptor antagonists and CCK-8 have a common step in their "receptor desmodynamic processes"” (J Med Chem, 2006).

Target: T1, Cholecystokinin receptor type A (Homo sapiens, UniProt P32238)
T1 sequence (P32238 whole entry): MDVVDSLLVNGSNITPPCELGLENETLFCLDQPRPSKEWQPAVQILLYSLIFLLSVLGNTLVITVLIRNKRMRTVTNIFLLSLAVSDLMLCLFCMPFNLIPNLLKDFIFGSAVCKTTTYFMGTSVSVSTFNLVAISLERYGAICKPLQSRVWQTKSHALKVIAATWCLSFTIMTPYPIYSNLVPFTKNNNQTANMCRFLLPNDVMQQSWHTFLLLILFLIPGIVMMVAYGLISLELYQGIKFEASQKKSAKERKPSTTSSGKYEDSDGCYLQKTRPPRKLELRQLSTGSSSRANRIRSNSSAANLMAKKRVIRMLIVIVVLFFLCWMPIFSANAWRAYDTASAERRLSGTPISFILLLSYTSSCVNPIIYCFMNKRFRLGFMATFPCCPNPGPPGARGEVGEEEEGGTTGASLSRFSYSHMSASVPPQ
Test: Displacement of [111In]DTPA-Glu-Gly-[Tyr27(SO3H)]-CCK8 from human CCK1 receptor in A431 cells
Type: cell-based, A-431

SMILES	IC50 [nM]
O=C(/C=C/c1ccccc1)Nc1ccccc1C(=O)NC(Cc1ccccc1)C(=O)O (racemic)	4000
O=C(Nc1ccccc1C(=O)NC(Cc1ccccc1)C(=O)O)c1cc2ccccc2[nH]1 (racemic)	197
CC(NC(=O)c1ccccc1NC(=O)c1cc2ccccc2[nH]1)C(=O)O (racemic)	2800

Further molecules by falling IC50, results first:

IC50 [nM]	SMILES
12700	CC(=O)N/C(=C/c1ccccc1)C(=O)Nc1ccccc1C(=O)NC(Cc1ccccc1)C(=O)O (racemic)
195	CCCCCN(CCCOC)C(=O)C(CCC(=O)O)NC(=O)c1ccc(Cl)c(Cl)c1 (stereo not given) [LOXIGLUMIDE]
